Results from paper PMC10443802, “Targeting a xenobiotic transporter to ameliorate vincristine-induced sensory neuropathy” (JCI Insight, 2023).
Where “and” joins values, the source holds several entries; their conditions need not be identical. Identical values can stand only once.

Assays:
HL-60 = experiment: Cytotoxicity of vincristine with or without nilotinib, MTT assay, HL-60; format: cell-based, human; conditions: individual replicates
hOAT4 = hOAT4 (Homo sapiens, UniProt Q9NSA0); experiment: Vincristine uptake screen, HeLa cells overexpressing hOAT4; format: in vitro ADME
Experimental: Relative uptake is expressed as percentage change compared with empty vector controls (n = 4–14 per group). […] Human OATP1B1 and OATP1B3 transporter–overexpressed cells were used as positive controls; empty vector controls were used as the negative control. […] Mechanical allodynia (C), thermal hyperalgesia (D), and sciatic nerve maximal action potential amplitudes (E) are expressed as percentage change relative to baseline values (n = 6–8 per group). Statistical analysis was performed using a 2-way ANOVA with Bonferroni’s post hoc test. **P < 0.01, ***P < 0.001, ****P < 0.0001, compared with baseline values. […] Data are shown as mean ± SEM. […]
transfected with transporters of interest, including hOAT1, hOAT3, hOAT4, hOATP1A2, hOATP3A1, hOATP4A1, hOATP5A1, hOATP1C1, hOATP1B1, hOATP1B3, hOATP2B1, hOCT1, hOCT2, hOCTN1, hOCTN2, hASBT, hNTCP, hNPT1, hMATE1, hOSTα/β, hPEPT1, hPEPT2, rOatp1a1, rOatp1a4, rOatp1a5, rOatp1b2, rNtcp, rAsbt, rOat1, and rOct1. Cells were transfected with expression plasmid or vector control lacking any insert using Lipofectin reagent (Invitrogen). […] The cellular radioactivity was quantified by liquid scintillation counting as described above. […]
(§1) Samples were analyzed using real-time quantitative PCR and Taqman Probes (Applied Biosystems). The relative gene expression was determined using the ΔΔCt method, and normalized to the mouse or human housekeeping gene, GAPDH. […]

hOATP1A2 = hOATP1A2 (Homo sapiens, UniProt P46721); experiment: Substrate uptake in HEK293 cells overexpressing hOATP1A2; conditions: HEK293 OATP1A2
Excerpt: transfected with transporters of interest, including hOAT1, hOAT3, hOAT4, hOATP1A2, hOATP3A1, hOATP4A1, hOATP5A1, hOATP1C1, hOATP1B1, hOATP1B3, hOATP2B1, hOCT1, hOCT2, hOCTN1, hOCTN2, hASBT, hNTCP, hNPT1, hMATE1, hOSTα/β, hPEPT1, hPEPT2, rOatp1a1, rOatp1a4, rOatp1a5, rOatp1b2, rNtcp, rAsbt, rOat1, and rOct1. Cells were transfected with expression plasmid or vector control lacking any insert using Lipofectin reagent (Invitrogen). Sixteen hours thereafter, cells were washed with transport media (OPTIMEM, Invitrogen) and treated with radiolabeled drug. At various time intervals, cells were washed three times with ice-cold PBS and then lysed with 1% sodium dodecyl sulfate. The cellular radioactivity was quantified by liquid scintillation counting as described above. Similar analyses were performed in HEK293 cells transfected with hOATP1A2, hOATP1C1, mMATE1, and hMATE1, with cells seeded in poly lysine pre-coated 12-well plates. For hOATP1A2 and hOATP1C1, transient transfections were performed with either an empty vector, OATP1A2, or OATP1C1 using Lipofectamine 2000 according to the manufacturers protocol (Invitrogen). At 48 h post transfection, […]
as §1

hOAT4, sequence (Q9NSA0 whole entry): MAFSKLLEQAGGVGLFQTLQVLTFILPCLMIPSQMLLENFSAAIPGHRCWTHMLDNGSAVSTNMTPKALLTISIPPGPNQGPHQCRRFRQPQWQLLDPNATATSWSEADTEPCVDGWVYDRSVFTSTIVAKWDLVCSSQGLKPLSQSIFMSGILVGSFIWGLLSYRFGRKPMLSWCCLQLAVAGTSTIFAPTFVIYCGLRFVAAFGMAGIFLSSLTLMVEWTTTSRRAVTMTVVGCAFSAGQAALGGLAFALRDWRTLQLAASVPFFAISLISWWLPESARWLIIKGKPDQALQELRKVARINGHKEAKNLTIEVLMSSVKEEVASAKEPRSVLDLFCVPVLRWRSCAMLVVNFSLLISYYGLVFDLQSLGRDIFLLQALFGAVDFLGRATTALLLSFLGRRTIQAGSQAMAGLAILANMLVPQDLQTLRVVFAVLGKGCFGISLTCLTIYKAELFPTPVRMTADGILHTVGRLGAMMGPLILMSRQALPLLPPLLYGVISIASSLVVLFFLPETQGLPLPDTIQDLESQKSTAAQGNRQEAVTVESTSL
hOATP1A2, sequence (P46721 whole entry): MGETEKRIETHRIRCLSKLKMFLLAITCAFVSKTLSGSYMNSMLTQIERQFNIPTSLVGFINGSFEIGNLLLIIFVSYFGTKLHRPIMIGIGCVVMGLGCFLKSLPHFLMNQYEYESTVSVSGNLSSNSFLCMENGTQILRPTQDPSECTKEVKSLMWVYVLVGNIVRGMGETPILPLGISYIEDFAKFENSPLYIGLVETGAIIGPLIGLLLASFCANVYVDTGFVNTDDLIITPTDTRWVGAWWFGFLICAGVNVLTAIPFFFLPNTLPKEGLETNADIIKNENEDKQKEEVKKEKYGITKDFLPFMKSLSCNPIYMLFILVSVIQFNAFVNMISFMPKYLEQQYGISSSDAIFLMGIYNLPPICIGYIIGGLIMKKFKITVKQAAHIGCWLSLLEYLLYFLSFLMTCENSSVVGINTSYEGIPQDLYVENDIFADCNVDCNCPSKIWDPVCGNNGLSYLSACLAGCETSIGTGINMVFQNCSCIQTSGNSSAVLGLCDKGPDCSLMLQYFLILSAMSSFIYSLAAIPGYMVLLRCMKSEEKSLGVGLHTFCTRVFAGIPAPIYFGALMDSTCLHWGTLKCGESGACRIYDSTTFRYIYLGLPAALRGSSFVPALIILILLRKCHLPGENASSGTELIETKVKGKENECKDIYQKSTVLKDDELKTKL

SMILES: CC[C@]1(O)C[C@H]2CN(CCc3c([nH]c4ccccc34)[C@@](C(=O)OC)(c3cc4c(cc3OC)N(C=O)[C@H]3[C@@](O)(C(=O)OC)[C@H](OC(C)=O)[C@]5(CC)C=CCN6CC[C@]43[C@@H]65)C2)C1 [Vincristine, vincristine]
- IC50 (HL-60; HL-60 cells, vincristine alone): 9.13 nM and 3.89 nM and 6.71 nM and 7.31 nM and 6.48 nM and 6.07 nM and 6.3 nM and 8.17 nM and 5.71 nM
- IC50 (HL-60; Homo sapiens, HL-60, HL-60 cells, vincristine + 1μM Nilotinib): 6.98 nM
- Vincristine uptake (% of vector control) (hOAT4): 107.00 % of vector control and 81.00 % of vector control and 79.00 % of vector control and 90.00 % of vector control and 80.00 % of vector control and 99.00 % of vector control and 111.00 % of vector control and 113.00 % of vector control
- Contribution of transporter to cellular uptake of vincristine (hOATP1A2): do not appreciably contribute to the cellular uptake of vincristine
